# Test results reported in PubChem BioAssay (NCI).
#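 Grown in 96-well plates, cells were treated for 48 hours with each compound at five concentrations. Insufficient inhibition: endpoint recorded as highest concentration tested. Definition used: TGI = concentration required for complete inhibition of growth.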
# Legend:
# Assay in all cases: NCI tumour cell line growth inhibition, 48 h
# HOP-18 NSCLC = system: HOP-18 NSCLC
# KM20L2 colon = system: KM20L2 colon
# LXFL 529 NSCLC = system: LXFL 529 NSCLC
# RXF-631 renal = system: RXF-631 renal
# SNB-78 CNS = system: SNB-78 CNS
# XF 498 CNS = system: XF 498 CNS
# P388 leukemia = system: P388 leukemia
# SN12K1 renal = system: SN12K1 renal
# P388/ADR leukemia = system: P388/ADR leukemia
Compound,TGI (HOP-18 NSCLC) [µM],TGI (KM20L2 colon) [µM],TGI (LXFL 529 NSCLC) [µM],TGI (RXF-631 renal) [µM],TGI (SNB-78 CNS) [µM],TGI (XF 498 CNS) [µM],TGI (P388 leukemia) [µM],TGI (SN12K1 renal) [µM],TGI (P388/ADR leukemia) [µM]
CCOC(=O)C(=O)Nc1c(CC)cccc1C(C)CC (stereo not given),> 100,> 100,> 100,> 100,> 100,> 100,–,–,–
Nc1cccc2c1C1=NNC(=O)CC1C2 (stereo not given),–,> 100,–,–,> 100,> 100,> 100,> 100,–
Cc1ccc2ccc3ccc(C)nc3c2n1,> 100,> 100,> 100,–,> 100,–,–,–,–
Cc1c2cc[n+](C)cc2c(C)c2c1[nH]c1ccc(Cl)cc12,22.7,46,2.59,–,2.56,–,–,–,–
C=Cc1cc(OC)c2c(c1)c(=O)oc1c2cc(OC)c2c(O)ccc(C3OC(C)C(O)C(C)(O)C3O)c21 (stereo not given),0.392,0.161,–,–,–,0.0373,0.529,0.131,0.804
N#CCCOCN(CO)c1nc(N(CO)COCCC#N)nc(N(CO)COCCC#N)n1,59.6,61.5,42.5,–,> 100,31.5,–,–,–
